In ChEMBL document CHEMBL3352596, “Discovery of novel inhibitors of vascular endothelial growth factor-A-Neuropilin-1 interaction by structure-based virtual screening” (Bioorg Med Chem, 2014):

Target: Neuropilin-1 (Rattus norvegicus) (UniProt Q9QWJ9)
Experiment: Inhibition of biotinylated VEGF-A165 from rat recombinant NRP-1 Fc domain at 100 uM

First: Clc1ccc(COc2ccc(CNC3CC3)cc2)cc1
Second: Cc1cc(O)c(C(=O)COc2ccccc2)c(O)c1
The inhibition of the first is lower: 47.3% for the first, 55.3% for the second.

Compared with CC(C)NCc1ccccc1OCc1ccc(Cl)cc1, CCCNCc1ccc(OCc2ccc(Cl)cc2Cl)c(OC)c1 is higher in inhibition: 44.8% for the first, 60.2% for the second.

Compared with CC[C@H](C)c1ccccc1OCCCCN(CC)CC, CC[C@@H](C)NCCCOc1ccc(Cl)c(C)c1C is higher in inhibition: 41.6% for the first, 52.3% for the second.

First: H-ATWLPPR-OH
Second: OCCNCc1ccc(OCc2ccccc2)c(Cl)c1
The inhibition of the first is higher: 91.5% for the first, 45.1% for the second.

Compared with CC(=O)Nc1ccc2nc(-c3ccccc3C)oc2c1, CCOc1cc(CNCCO)ccc1OCc1ccc(Cl)cc1Cl is higher in inhibition: 53.3% for the first, 71.5% for the second.

Going from CCNCc1cc(Cl)c(OCc2ccccc2Cl)c(OC)c1 to COc1cc(CNCCO)cc(Br)c1OCc1ccccc1Cl, the inhibition rises from 59.2% to 60.5%.

Target: Neuropilin-1 (Rattus norvegicus, UniProt Q9QWJ9)
Experiment: Inhibition of biotinylated VEGF-A165 from rat recombinant NRP-1 Fc domain

First: H-ATWLPPR-OH
Second: CCOc1cc(CNCCO)cc(Br)c1OCc1ccc(Cl)cc1Cl
The Ki of the first is 2.1-fold lower: 5.2 µM for the first, 10.7 µM for the second. The first binds more tightly here.

COc1cc(CNCCO)cc(Cl)c1OCc1ccc(Cl)cc1Cl and COc1cc(CNC(C)c2ccccc2)cc(Br)c1OCc1ccccc1Cl (configuration not stated) are within 1.5-fold of each other in Ki: 7.3 µM for the first, 9.4 µM for the second.

With CCOc1cc(CNCc2ccccc2)cc(Cl)c1OCc1ccccc1Cl the Ki was 11.3 µM.
